Activity calls are given as the source filed them. No cut-off for these calls is given here. Peptide text beside a SMILES is read from it.
How the values were obtained:
[1] = molecular target: T1, E3 ubiquitin-protein ligase XIAP (Homo sapiens, UniProt P98170); experiment: Displacement of fluorescent H-Abu-Arg-Pro-Phe-Lys-NH-FAM-NH2 peptide from XIAP BIR3 domain by fluorescence polarization assay
[2] = molecular target: T1, E3 ubiquitin-protein ligase XIAP; experiment: Inhibition of XIAP in HEK293 cell lysate assessed as release of caspase-3 from BIR3 measuring formation of fluorescent AFC from DEVD-AFC by fluorimetry; type: cell-free
[3] = molecular target: T1, E3 ubiquitin-protein ligase XIAP; experiment: Inhibition of XIAP in HEK293 cell lysate assessed as release of caspase-9 from BIR3 measuring formation of fluorescent AFC from LEHD-AFC by fluorimetry; type: cell-free

T1 sequence (P98170 whole entry, the tested form may be a part): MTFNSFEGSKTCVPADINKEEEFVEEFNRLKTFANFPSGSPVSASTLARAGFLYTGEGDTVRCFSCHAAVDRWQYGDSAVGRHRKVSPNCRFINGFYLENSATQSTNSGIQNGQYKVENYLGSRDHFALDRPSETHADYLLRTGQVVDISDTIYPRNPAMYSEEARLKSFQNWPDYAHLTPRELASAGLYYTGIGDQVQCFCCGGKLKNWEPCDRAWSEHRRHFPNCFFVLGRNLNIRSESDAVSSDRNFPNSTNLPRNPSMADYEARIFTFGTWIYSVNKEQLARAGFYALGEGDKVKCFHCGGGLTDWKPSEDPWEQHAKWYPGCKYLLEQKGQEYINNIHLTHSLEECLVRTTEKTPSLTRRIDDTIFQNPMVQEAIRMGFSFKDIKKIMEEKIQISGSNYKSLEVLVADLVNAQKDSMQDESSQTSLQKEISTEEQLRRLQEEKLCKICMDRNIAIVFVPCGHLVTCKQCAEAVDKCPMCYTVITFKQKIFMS

Row | SMILES | IC50 [1] [nM] | inhibition [2] | inhibition [3] | Activity [1]
1 | CC[C@H](C)[C@H](NC(=O)[C@@H]1CCCN1C(=O)[C@H](CS)NC(=O)[C@H](C)N)C(=O)O (H-ACPI-OH) | 650 |  |  | 
2 | CC[C@H](C)[C@H](NC(=O)[C@@H]1CCCN1C(=O)[C@H](CS)NC(=O)[C@H](C)N)C(=O)NCCOCCOCC(=O)NCCN(CC(=O)NCCN(CC(=O)NCCN(CC(=O)NCCN(CC(=O)NCCN(CC(=O)NCCN(CC(=O)NCCN(CC(=O)NCC(N)=O)C(=O)Cn1cnc2c(=O)[nH]c(N)nc21)C(=O)Cn1cnc2c(N)ncnc21)C(=O)Cn1ccc(N)nc1=O)C(=O)Cn1cnc2c(N)ncnc21)C(=O)Cn1cc(C)c(=O)[nH]c1=O)C(=O)Cn1ccc(N)nc1=O)C(=O)Cn1ccc(N)nc1=O | 560 | Dose-dependent effect | Dose-dependent effect | 
3 | CC(=O)NCCN(CC(=O)NCCN(CC(=O)NCCN(CC(=O)NCCN(CC(=O)NCCN(CC(=O)NCCN(CC(=O)NCCN(CC(=O)NCCN(CC(=O)N[C@@H](CCCCNC(=O)CCSC(=O)[C@H](C)N)C(N)=O)C(=O)Cn1ccc(N)nc1=O)C(=O)Cn1cnc2c(N)ncnc21)C(=O)Cn1ccc(N)nc1=O)C(=O)Cn1ccc(N)nc1=O)C(=O)Cn1ccc(N)nc1=O)C(=O)Cn1ccc(N)nc1=O)C(=O)Cn1cc(C)c(=O)[nH]c1=O)C(=O)Cn1cc(C)c(=O)[nH]c1=O |  |  |  | inactive
4 | CC[C@H](C)[C@H](NC(=O)[C@@H]1CCCN1C(=O)[C@@H](N)CS)C(=O)N[C@@H](C)C(=O)N[C@@H](CCC(N)=O)C(=O)N[C@@H](CCCCN)C(=O)NCCN(CC(=O)NCCN(CC(=O)NCCN(CC(=O)NCCN(CC(=O)NCCN(CC(=O)NCCN(CC(=O)NCCN(CC(=O)NCC(N)=O)C(=O)Cn1cnc2c(=O)[nH]c(N)nc21)C(=O)Cn1cnc2c(N)ncnc21)C(=O)Cn1ccc(N)nc1=O)C(=O)Cn1cnc2c(N)ncnc21)C(=O)Cn1cc(C)c(=O)[nH]c1=O)C(=O)Cn1ccc(N)nc1=O)C(=O)Cn1ccc(N)nc1=O |  |  |  | inactive
5 | CC[C@H](C)[C@H](NC(=O)[C@@H]1CCCN1C(=O)[C@@H](N)CS)C(=O)NCCOCCOCC(=O)NCCN(CC(=O)NCCN(CC(=O)NCCN(CC(=O)NCCN(CC(=O)NCCN(CC(=O)NCCN(CC(=O)NCCN(CC(=O)NCC(N)=O)C(=O)Cn1cnc2c(=O)[nH]c(N)nc21)C(=O)Cn1cnc2c(N)ncnc21)C(=O)Cn1ccc(N)nc1=O)C(=O)Cn1cnc2c(N)ncnc21)C(=O)Cn1cc(C)c(=O)[nH]c1=O)C(=O)Cn1ccc(N)nc1=O)C(=O)Cn1ccc(N)nc1=O |  |  |  | inactive
6 | CC[C@H](C)[C@H](NC(=O)[C@@H]1CCCN1C(=O)[C@H](CS)NC(=O)[C@H](C)N)C(=O)N[C@@H](C)C(=O)N[C@@H](CCC(N)=O)C(=O)N[C@@H](CCCCN)C(=O)NCCN(CC(=O)NCCN(CC(=O)NCCN(CC(=O)NCCN(CC(=O)NCCN(CC(=O)NCCN(CC(=O)NCCN(CC(=O)NCC(N)=O)C(=O)Cn1cnc2c(=O)[nH]c(N)nc21)C(=O)Cn1cnc2c(N)ncnc21)C(=O)Cn1ccc(N)nc1=O)C(=O)Cn1cnc2c(N)ncnc21)C(=O)Cn1cc(C)c(=O)[nH]c1=O)C(=O)Cn1ccc(N)nc1=O)C(=O)Cn1ccc(N)nc1=O | 1520 | Dose-dependent effect | Dose-dependent effect | 
